{"source": "patent US20160175634A1", "about": "(priority 2014, published 2016)", "type_in_all_cases": "cell-based", "key": {"[1]": {"test_system": "Pseudomonas sp. NCIB 9816-4"}, "[2]": {"test_system": "Escherichia coli DH5α"}, "[3]": {"test_system": "Glutathione-S transferase"}, "[4]": {"target": "T1, CAH (Moorella thermoacetica, UniProt Q2RGM7)", "T1 construct": "expressed in transfected cells; host or cells: E. coli BL21(DE3)(pET28b+CAH), IPTG-induced", "T1 sequence (Q2RGM7 1-367)": "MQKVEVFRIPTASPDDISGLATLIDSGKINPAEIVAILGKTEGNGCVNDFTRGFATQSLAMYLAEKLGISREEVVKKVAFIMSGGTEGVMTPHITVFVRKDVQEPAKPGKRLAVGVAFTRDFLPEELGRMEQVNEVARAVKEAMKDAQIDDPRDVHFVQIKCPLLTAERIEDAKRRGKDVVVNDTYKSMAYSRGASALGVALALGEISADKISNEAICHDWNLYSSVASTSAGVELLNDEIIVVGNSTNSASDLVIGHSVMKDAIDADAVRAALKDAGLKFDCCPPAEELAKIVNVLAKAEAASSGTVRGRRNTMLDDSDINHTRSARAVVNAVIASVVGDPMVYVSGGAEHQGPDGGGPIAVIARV"}, "[5]": {"target": "T1, CAH", "remark": "listed apart in the source"}, "[6]": {"target": "T2, AtzA (Pseudomonas sp., UniProt P72156)", "T2 construct": "expressed in transfected cells; host or cells: E. coli DH5α (pMD4)", "T2 sequence (P72156 1-474)": "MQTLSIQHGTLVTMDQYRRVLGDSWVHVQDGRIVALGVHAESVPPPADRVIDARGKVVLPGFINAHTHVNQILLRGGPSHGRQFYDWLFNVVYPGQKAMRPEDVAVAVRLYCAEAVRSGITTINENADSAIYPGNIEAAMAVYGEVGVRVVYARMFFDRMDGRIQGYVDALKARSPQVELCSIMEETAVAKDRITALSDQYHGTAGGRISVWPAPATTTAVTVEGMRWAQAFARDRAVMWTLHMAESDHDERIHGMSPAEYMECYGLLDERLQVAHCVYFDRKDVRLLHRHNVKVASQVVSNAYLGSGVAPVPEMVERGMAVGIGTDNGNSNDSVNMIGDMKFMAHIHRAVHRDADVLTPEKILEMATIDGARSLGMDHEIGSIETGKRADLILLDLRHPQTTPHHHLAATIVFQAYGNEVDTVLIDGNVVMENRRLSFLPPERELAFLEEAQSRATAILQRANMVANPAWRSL"}, "[7]": {"target": "T2, AtzA", "remark": "listed apart in the source"}, "[8]": {"target": "T3, Azo reductase (Staphylococcus aureus, UniProt Q50H63)", "T3 construct": "expressed in transfected cells; host or cells: E. coli DH5 alpha", "T3 sequence (Q50H63 1-188)": "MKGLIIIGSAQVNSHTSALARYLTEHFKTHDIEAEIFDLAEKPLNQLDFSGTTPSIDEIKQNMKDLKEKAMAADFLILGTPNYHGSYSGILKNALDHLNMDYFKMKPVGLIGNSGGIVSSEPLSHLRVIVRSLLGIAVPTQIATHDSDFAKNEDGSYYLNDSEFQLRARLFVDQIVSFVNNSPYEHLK"}, "[9]": {"test_system": "Homoprotocatechuate 2,3-dioxygenase"}}, "note": "Where “and” joins values, the source holds several entries; their conditions need not be identical. Equal values may be shown once. Where a name gives a salt, the structure may show the parent alone."}
{"smiles": "Oc1ccccc1", "note": "[Phenol]", "values": [{"measurement": "removal of single substrate from hydrocarbon solution (in words)", "setting": "[1]", "result": "very low removal"}]}
{"smiles": "c1ccc2ccccc2c1", "note": "[Naphthalene]", "values": [{"measurement": "concentration (below detection limit)", "setting": "[1]", "result": "< 1", "unit": "nM"}, {"measurement": "concentration left in the bulk solution (C/C0)", "setting": "[1]", "result": "~25", "unit": "%"}, {"measurement": "final concentration", "setting": "[2]", "result": "215.39 ± 7.23", "unit": "µM"}, {"measurement": "remaining concentration", "setting": "[2]", "result": "164.26 ± 8.90 µM and 107.67 ± 19.69 µM"}]}
{"smiles": "O=[N+]([O-])c1ccc(Cl)c([N+](=O)[O-])c1", "note": "[1-chloro2,4-dinitrobenzene]", "values": [{"measurement": "Ratio (free cells/gel)", "setting": "[3]", "result": "~3.8"}]}
{"smiles": "O=c1[nH]c(=O)[nH]c(=O)[nH]1", "note": "[Cyanuric acid]", "values": [{"measurement": "cyanuric acid removed", "setting": "[4]", "result": "over 7,000 M"}, {"measurement": "degradation of cyanuric acid (in words)", "setting": "[4]", "result": "complete degradation"}, {"measurement": "decrease of initial rate of cyanuric acid degradation", "setting": "[5]", "result": "approximately 50%"}, {"measurement": "cyanuric acid level", "setting": "[5]; 15 h", "result": "undetectable levels"}]}
{"smiles": "CCNc1nc(Cl)nc(NC(C)C)n1", "note": "[Atrazine, 2-chloro-4-ethylamino-6-isopropylamino-1,3,5-triazine]", "values": [{"measurement": "atrazine removal, solutions left for 24 h", "setting": "[6]", "result": "complete atrazine removal"}, {"measurement": "increase of degradation rate", "setting": "[6]", "result": "three-folds"}, {"measurement": "enhancement of atrazine degradation rates", "setting": "[7]", "result": "threefold"}, {"measurement": "rate of atrazine removal, 75% phenyl gel compared to Teos gel", "setting": "[7]", "result": "approximately 3 fold"}, {"measurement": "rate of hydroxyatrazine formation, 75% phenyl gel compared to Teos gel", "setting": "[7]", "result": "approximately 3 fold"}]}
{"smiles": "CN(C)c1ccc(/N=N/c2ccccc2C(=O)O)cc1", "note": "[methyl red sodium salt]", "values": [{"measurement": "Ratio (free cells/gel)", "setting": "[8]", "result": "1.8-3.7"}]}
{"smiles": "CC(=O)Oc1ccc(O)c(O)c1", "note": "[3,4 Dihydroxypheny acetate]", "values": [{"measurement": "Ratio (free cells/gel)", "setting": "[9]", "result": "1-2.5"}]}
{"smiles": "Cc1ccc(O)cc1", "note": "[p-Cresol]", "values": [{"measurement": "removal of single substrate from hydrocarbon solution (in words)", "setting": "[1]", "result": "completely degraded"}]}
